The record followed here is patent publication US7947704B2, “2,4,6-phenyl-substituted cyclic ketoenols” (Bayer CropScience AG, priority 2004, dated 2011).

Assay type in all cases: in vivo
Assay [1] has as its system Summer wheat. The experiment in a line: Herbicidal action and safener action, post-emergence, container trials with cereal. As for the experimental part: (§1) Herbicidal Action and Safener Action, Pre-emergence or Post-emergence
(§2) Seeds of rhizome pieces of monocotyledonous and dicotyledonous harmful plants and of crop plants are placed into sandy loam in pots made of peat, covered with soil and cultivated in a greenhouse under growth conditions. In the pre-emergence application, safener and herbicide are applied after sowing, the post-emergence treatment is carried out about two to three weeks after sowing, at the three-leaf stage of the test plants. The herbicide/safener active compound combinations according to the invention, formulated as emulsion concentrates, and in parallel experiments the correspondingly formulated individual active compounds are, at various dosages at a water application rate of 300 l/ha (converted), sprayed onto the surface of the soil when applied by the pre-emergence method and onto the green parts of the plants when applied by the post-emergence method. Pre-emergence evaluation is carried out after 2-4 weeks, post-emergence evaluation is carried out after 1-3 weeks. During this time, the test plants are kept in a greenhouse under optimum growth conditions. The effect of the preparation is scored visually in comparison to untreated controls.
(§3) Container trials with cereal in the greenhouse.
(§4) Safener and herbicide were applied successively to the plants by the post-emergence method (application rates: see Tables)

Assay [2] has as its system Winter wheat. The description is as above. As for the experimental part:
as §1, §2, §3, §4

Assay [3] deals with Summer barley. Described as above. The method, then: as §1, §2, §3, §4
Assay [4] concerns Maize. Description: Safener action after seed dressing, herbicide pre-emergence. To be noted: seed not safener-dressed. The method, then:
Safener Action after Seed Dressing
The number of crop plant seeds needed for each safener application rate was calculated. Based on the weight of 100 seeds, sufficient seeds were weighed into screw top glass bottles approximately twice the volume of the seeds.
The prospective safeners were formulated as wettable powders or water-dispersible granules. These formulations were weighed out so that the required application rates (g of a.i./kg of seed) were obtained. The samples were added to the seeds in the bottles, followed by sufficient water to produce a seed dressing. The bottles were closed and then placed in an overhead shaker (set at medium speed for a period of up to one hour) so that the seeds were evenly coated with the seed dressing. The bottles were opened and the seeds were used in the pre-emergence tests.
Pre-emergence Application of Herbicides
The safener-treated seeds and untreated seeds as controls were sown in a sandy loam soil in round pots having a diameter of 7 to 13 cm and covered with approximately 0.5 to 1 cm of a 1:1 mix of sandy loam soil and sand. The herbicides, as liquid (for example emulsifiable concentrates) or dry (for example wettable powders) formulations, were diluted to the required concentrations using deionized water and applied to the soil surface using a track sprayer calibrated to deliver 300 liters of spray solution per hectare.
The pots were placed under good growing conditions in a greenhouse, and a visual assessment of the herbicidal effects was made 3 to 4 weeks after the application of the herbicide. The assessment was on a percentage basis in comparison to untreated control plants (0%=no damage, 100%=complete kill).
Herbicide application by the pre-emergence method, safener-dressed: […]

The subject of assay [5] is Myzus persicae. The experiment in a line: Myzus Test (spray treatment). To be noted: 500 g/ha; after 5 d.
Assay [6] relates to Meloidogyne incognita. The experiment in a line: Meloidogyne Test (gall formation on lettuce roots). To be noted: 20 ppm; after 14 d. The method, then: To produce a suitable preparation of active compound, 1 part by weight of active compound is mixed with the stated amounts of solvent and emulsifier, and the concentrate is diluted with water to the desired concentration.
Containers are filled with sand, solution of active compound, Meloidogyne incognita egg/larvae suspension and lettuce seeds. The lettuce seeds germinate and the plants develop. On the roots, galls are formed.
After the desired period of time, the nematicidal action is determined in % by gall formation. 100% means that no galls were found; 0% means that the number of galls on the treated plants corresponds to that of the untreated control.

The test system of assay [7] is Setaria. Description: Herbicidal pre-emergence action. The settings on record: 320 g of a.i./ha. An excerpt: (§5) 1. Herbicidal Pre-emergence Action
(§6) Seeds of monocotyledonous and dicotyledonous weed and crop plants are placed into sandy loam in wood fibre pots and covered with soil. The test compounds, formulated in the form of wettable powders (WP), are then, in various dosages as aqueous suspension with a water application rate of 600 l/ha (converted), with 0.2% of wetting agent added, applied to the surface of the covering soil.
(§7) After the treatment, the pots are placed in a greenhouse and kept under good growth conditions for the test plants. The visual assessment of the emergence damage on the test plants is carried out after a trial period of 3 weeks by comparison with untreated controls (herbicidal effect in percent (%): 100% effect=the plants have died, 0% effect=like control plants).

Assay [8] concerns Lolium. Description: Herbicidal pre-emergence action. To be noted: 320 g of a.i./ha.
Excerpt: as §5, §6, §7

Assay [9] concerns Maize. The experiment in a line: Herbicidal action and safener action, safener and herbicide applied successively pre-emergence. As for the experimental part: as §1, §2
Safener and herbicide applied successively by the pre-emergence method.

The mark [10] stands for this setting: application rate 25 g of a.i./ha.
Setting [11] is: application rate 50 g of a.i./ha.
[12] abbreviates: application rate 100 g of a.i./ha.
Where [13] appears, read: herbicide pre-emergence 25 g of a.i./ha.
[14] abbreviates: herbicide pre-emergence 50 g of a.i./ha.

Consider `CCOc1cc(C)cc(Cl)c1C1=C(O)C2(CCC(OC)CC2)NC1=O` (single isomer, unassigned) [Example I-1-a-5], for which the “Summer wheat (%) damage” value in assay [1] (setting [10]) amounted to 20%; in [1] (setting [11]) it was 50%; in assay [1] (setting [12]), 60%. The “Winter wheat (%) observed damage” value in assay [2] (setting [10]) is given as 10%; in assay [2] (setting [11]) it was 30%; in [2] (setting [12]), 60%. Also, the “Summer barley (%) observed damage” value is 10% in assay [3] (setting [10]), 20% in [3] (setting [11]) and 20% in [3] (setting [12]). Also, the “Maize (%) damage” value in assay [4] (setting [13]) and in assay [4] (setting [14]) was 20% in each case.
On to `CCOC(=O)OC1=C(c2c(Cl)cc(C)cc2OC)C(=O)OC12CCOCC2` [Ex. I-2-c-3], for which the “kill rate against Myzus persicae” value in assay [5] stood at 100%.
`COc1cc(C)cc(Cl)c1C1=C(OC(=O)C(C)C)C2(CCC(OC)CC2)NC1=O` (stereo not drawn) [Example I-1-b-1]: the “Summer barley (%) observed damage” value in assay [3] (setting [10]) is recorded as 30%; in [3] (setting [11]), 40%; in assay [3] (setting [12]), 55%.
For `CCOC(=O)OC1=C(c2c(Cl)cc(C)cc2OC)C(=O)OC12CCC(OC)CC2` (mixture of isomers) [Ex. I-2-c-2], the “kill rate against Myzus persicae” value in [5] was found to be 100%.
Take `COc1cc(C)cc(Cl)c1C1=C(O)C2(CCOCC2)NC1=O` [Ex. I-1-a-1]: the “kill rate against Meloidogyne” value in assay [6] is recorded as 100%.
With `COc1cc(C)cc(Cl)c1C1=C(OC(=O)C(C)C)C2(CCCC2)OC1=O` [Ex. I-2-b-1], in assay [5], the “kill rate against Myzus persicae” value was 100%.
On to `COc1cc(C)cc(Cl)c1C1=C(O)C(C)(C)NC1=O` [Ex. I-1-a-2], for which, in assay [7], the “kill rate against Setaria” value is on record as at least 80%. For the same molecule, in assay [8], the “kill rate against Lolium” value is at least 80%.
As to `CCOC(=O)OC1=C(c2c(Cl)cc(C)cc2OC)C(=O)NC12CCC(OC)CC2` (stereo not drawn) [Example I-1-c-1], the “Winter wheat (%) observed damage” value came out at 10% in assay [2] (setting [10]) and 30% in assay [2] (setting [11]). Also, the entries for the “Summer barley (%) observed damage” value in [3] (setting [10]), in assay [3] (setting [11]) and in assay [3] (setting [12]) were 10%, 30% and 60%, respectively. In [4] (setting [13]), the “Maize (%) damage” value came to 35%.
On to `COc1cc(C)cc(Cl)c1C1=C(O)C2(CCCC2)OC1=O` [Ex. I-2-a-1], for which, in [5], the “kill rate against Myzus persicae” value is on record as 100%.
The same measure, in the same setting: next, `COc1cc(C)cc(Cl)c1C1=C(OC(=O)C(C)C)C2(CCOCC2)OC1=O` [Ex. I-2-b-3]: 100%; `CCOC(=O)OC1=C(c2c(Cl)cc(C)cc2OC)C(=O)OC12CCCC2` [Ex. I-2-c-1]: 100%.
With `COc1cc(C)cc(Cl)c1C1=C(O)C2(CCC(OC)CC2)NC1=O` (single isomer, unassigned) [Ex. I-1-a-3], the “kill rate against Myzus persicae” value in [5] is 100%. The “kill rate against Meloidogyne” value in [6] came to 100%.
Turning to `COc1cc(C)cc(Cl)c1C1=C(O)C2(CCC(OC)CC2)OC1=O` (stereo not drawn) [Ex. I-2-a-2], in assay [5], the “kill rate against Myzus persicae” value stood at 100%.
In the case of `CCCOc1cc(C)cc(Cl)c1C1=C(O)C2(CCC(OC)CC2)NC1=O` (single isomer, unassigned) [Example I-1-a-4], the “Maize (%) damage” value is 10% in assay [9] (setting [10]), 20% in [9] (setting [11]), 10% in assay [4] (setting [13]) and 20% in [4] (setting [14]). The “Summer wheat (%) damage” value in assay [1] (setting [10]) stood at 20%; in assay [1] (setting [11]), 45%; in [1] (setting [12]) it was 60%. Besides, the “Winter wheat (%) observed damage” value in assay [2] (setting [10]) came to 10%; in [2] (setting [11]), 30%; in assay [2] (setting [12]), 50%. The entries for the “Summer barley (%) observed damage” value in assay [3] (setting [10]), in [3] (setting [11]) and in [3] (setting [12]) were 0%, 10% and 20%, respectively.
